Source: patent US9409898B2, “Substituted pyrazole compounds as CRAC modulators” (LUPIN LIMITED, priority 2012, dated 2016)

These compounds were tested on IL-2 secretion (assay: Inhibition of IL-2 secretion in PHA-stimulated Jurkat T cells (ELISA)). Settings: Homo sapiens, PHA stimulation, 20 to 24 hours, IL-2 by ELISA.
Type: cell-based
Experimental: The CRAC channel modulatory activity of the compounds were thus evaluated by measuring the secretion of IL-2 by antigen stimulated T-cells in vitro. Alternatively, such activity can also be evaluated by assay methods known to one skilled in the art.
Inhibition of IL-2 secretion: Jurkat T cells were seeded at a density of 0.5 to 1 million cells per well in RPMI medium. Test compounds from this invention were added to the cells at different concentrations. This was followed by the addition of PHA, a T cell mitogen after 10 minutes. The cells were then incubated for 20 to 24 hours in a CO2 incubator at 37° C. After incubation with the compounds, cells were centrifuged, the supernatant was collected and processed for ELISA to quantitate the amount of IL-2 secreted. A commercial ELISA kit (R&D Systems, Inc. Minneapolis, Minn., USA) was used to estimate the IL-2 concentrations. Amount of IL-2 secreted by cells stimulated with PHA was considered as a 100% maximal signal and the decrease in amount of IL-2 secreted by cells treated with the test compounds was expressed as percent inhibition of the maximal signal. The dose response data was analyzed using 4-parametric sigmoidal dose response (variable slope) curve—fit.

Row | Compound | IC50
1 | COC(=O)C1(C)CC(c2cc(C(F)(F)F)n(-c3ccc(NCc4c(F)cccc4Cl)cn3)n2)=NO1 (centres unmarked) [Example 7, Methyl 3-(1-(5-((2-chloro-6-fluorobenzyl)amino)pyridin-2-yl)-5-(trifluoromethyl)-1H-pyrazol-3-yl)-5-methyl-4,5-dihydroisoxazole-5-carboxylate] | 100 to 1000 nM
2 | Cn1nc(-c2cc(C(F)(F)F)n(-c3ccc(NCc4c(F)cccc4F)cn3)n2)oc1=O [Example 22, 5-(1-(5-((2,6-Difluorobenzyl)amino)pyridin-2-yl)-5-(trifluoromethyl)-1H-pyrazol-3-yl)-3-methyl-1,3,4-oxadiazol-2(3H)-one] | < 100 nM
3 | CC1(C(N)=O)CC(c2cc(C(F)(F)F)n(-c3ccc(NC(=O)c4c(F)cccc4F)cn3)n2)=NO1 (centres unmarked) [Example 37, 3-(1-(5-(2,6-Difluorobenzamido)pyridin-2-yl)-5-(trifluoromethyl)-1H-pyrazol-3-yl)-5-methyl-4,5-dihydroisoxazole-5-carboxamide] | < 100 nM
4 | Cn1nc(-c2cc(C(F)(F)F)n(-c3ccc(NCc4c(F)cccc4F)nc3)n2)oc1=O [Example 51, 5-(1-(6-((2,6-Difluorobenzyl)amino)pyridin-3-yl)-5-(trifluoromethyl)-1H-pyrazol-3-yl)-3-methyl-1,3,4-oxadiazol-2(3H)-one] | < 100 nM
5 | Cn1nc(-c2cc(C(F)(F)F)nn2-c2ccc(NC(=O)c3c(F)cccc3F)cn2)oc1=O [Example 1, 2,6-Difluoro-N-(6-(5-(4-methyl-5-oxo-4,5-dihydro-1,3,4-oxadiazol-2-yl)-3-(trifluoromethyl)-1H-pyrazol-1-yl)pyridin-3-yl)benzamide] | 100 to 1000 nM
6 | Cc1cccc(F)c1C(=O)Nc1ccc(-n2nc(-c3nn(C)c(=O)o3)cc2C(F)(F)F)cn1 [Example 40, 2-Fluoro-6-methyl-N-(5-(3-(4-methyl-5-oxo-4,5-dihydro-1,3,4-oxadiazol-2-yl)-5-(trifluoromethyl)-1H-pyrazol-1-yl)pyridin-2-yl)benzamide] | < 100 nM
7 | Cn1nc(-c2cc(C(F)(F)F)n(-c3ccc(C(=O)Nc4c(F)cccc4F)cn3)n2)oc1=O [Example 54, N-(2,6-Difluorophenyl)-6-(3-(4-methyl-5-oxo-4,5-dihydro-1,3,4-oxadiazol-2-yl)-5-(trifluoromethyl)-1H-pyrazol-1-yl)nicotinamide] | 100 to 1000 nM
8 | Cn1nc(-c2cc(CF)n(-c3ccc(NCc4c(F)cccc4F)cn3)n2)oc1=O [Example 5, 5-(1-(5-((2,6-Difluorobenzyl)amino)pyridin-2-yl)-5-(fluoromethyl)-1H-pyrazol-3-yl)-3-methyl-1,3,4-oxadiazol-2(3H)-one] | 100 to 1000 nM
9 | Cn1nc(-c2cc(C(F)(F)F)n(-c3ccc(NC(=O)c4ccccc4Cl)nc3)n2)oc1=O [Example 47, 2-Chloro-N-(5-(3-(4-methyl-5-oxo-4,5-dihydro-1,3,4-oxadiazol-2-yl)-5-(trifluoromethyl)-1H-pyrazol-1-yl)pyridin-2-yl)benzamide] | < 100 nM
10 | Cn1nc(-c2cc(C3CC3)n(-c3ccc(NC(=O)c4c(F)cccc4F)cn3)n2)oc1=O [Example 29, N-(6-(5-Cyclopropyl-3-(4-methyl-5-oxo-4,5-dihydro-1,3,4-oxadiazol-2-yl)-1H-pyrazol-1-yl)pyridin-3-yl)-2,6-difluorobenzamide] | 100 to 1000 nM
11 | CC1(C)ON=C(c2cc(C(F)(F)F)n(-c3ccc(NC(=O)c4c(F)cccc4F)cn3)n2)C1=O [Example 14, N-(6-(3-(5,5-Dimethyl-4-oxo-4,5-dihydroisoxazol-3-yl)-5-(trifluoromethyl)-1H-pyrazol-1-yl)pyridin-3-yl)-2,6-difluorobenzamide] | < 100 nM
12 | Cn1nc(-c2cc(C(F)(F)F)n(-c3ccc(NCc4c(F)cccc4Cl)cn3)n2)oc1=O [Example 23, 5-(1-(5-((2-Chloro-6-fluorobenzyl)amino)pyridin-2-yl)-5-(trifluoromethyl)-1H-pyrazol-3-yl)-3-methyl-1,3,4-oxadiazol-2(3H)-one] | < 100 nM
13 | Cn1nc(-c2cc(C(F)F)nn2-c2ccc(NCc3c(F)cccc3F)cn2)oc1=O [Example 13, 5-(1-(5-((2,6-Difluorobenzyl)amino)pyridin-2-yl)-3-(difluoromethyl)-1H-pyrazol-5-yl)-3-methyl-1,3,4-oxadiazol-2(3H)-one] | > 1000 nM
14 | CN1N=C(c2cc(C(F)(F)F)n(-c3ccc(NCc4c(F)cccc4Cl)cn3)n2)C(C)(C)C1=O [Example 25, 1′-(5-((2-Chloro-6-fluorobenzyl)amino)pyridin-2-yl)-1,4,4-trimethyl-5′-(trifluoromethyl)-1H,1′H-[3,3′-bipyrazol]-5(4H)-one] | 100 to 1000 nM
15 | Cn1nc(-c2cc(C(F)(F)F)n(-c3ccc(NC(=O)c4ccc(F)cc4F)nc3)n2)oc1=O [Example 45, 2,4-Difluoro-N-(5-(3-(4-methyl-5-oxo-4,5-dihydro-1,3,4-oxadiazol-2-yl)-5-(trifluoromethyl)-1H-pyrazol-1-yl)pyridin-2-yl)benzamide] | < 100 nM
16 | Cc1cccc(C(=O)Nc2ccc(-n3nc(-c4nn(C)c(=O)o4)cc3C(F)(F)F)cn2)c1C [Example 46, 2,3-Dimethyl-N-(5-(3-(4-methyl-5-oxo-4,5-dihydro-1,3,4-oxadiazol-2-yl)-5-(trifluoromethyl)-1H-pyrazol-1-yl)pyridin-2-yl)benzamide] | < 100 nM
17 | Cn1nc(-c2cc(C(F)(F)F)n(-c3ccc(NC(=O)c4ccc(F)c(F)c4F)nc3)n2)oc1=O [Example 44, 2,3,4-Trifluoro-N-(5-(3-(4-methyl-5-oxo-4,5-dihydro-1,3,4-oxadiazol-2-yl)-5-(trifluoromethyl)-1H-pyrazol-1-yl)pyridin-2-yl)benzamide] | < 100 nM
18 | Cc1cccc(F)c1CNc1ccc(-n2nc(-c3nn(C)c(=O)o3)cc2C(F)(F)F)cn1 [Example 53, 5-(1-(6-((2-Fluoro-6-methylbenzyl)amino)pyridin-3-yl)-5-(trifluoromethyl)-1H-pyrazol-3-yl)-3-methyl-1,3,4-oxadiazol-2(3H)-one] | < 100 nM
19 | COC(=O)C1(C)CC(c2cc(C(F)(F)F)n(-c3ccc(NC(=O)c4c(F)cccc4F)cn3)n2)=NO1 (centres unmarked) [Example 35, Methyl 3-(1-(5-(2,6-difluorobenzamido)pyridin-2-yl)-5-(trifluoromethyl)-1H-pyrazol-3-yl)-5-methyl-4,5-dihydroisoxazole-5-carboxylate] | 100 to 1000 nM
20 | Cn1nc(-c2cc(C(F)F)nn2-c2ccc(NC(=O)c3c(F)cccc3F)cn2)oc1=O [Example 4, N-(6-(3-(Difluoromethyl)-5-(4-methyl-5-oxo-4,5-dihydro-1,3,4-oxadiazol-2-yl)-1H-pyrazol-1-yl)pyridin-3-yl)-2,6-difluorobenzamide] | > 1000 nM
21 | Cc1cc(-c2nn(C)c(=O)o2)nn1-c1ccc(NCc2c(F)cccc2F)cn1 [Example 32, 5-(1-(5-((2,6-Difluorobenzyl)amino)pyridin-2-yl)-5-methyl-1H-pyrazol-3-yl)-3-methyl-1,3,4-oxadiazol-2(3H)-one] | < 100 nM
22 | Cn1c(-c2cc(C(F)(F)F)n(-c3ccc(NC(=O)c4c(F)cccc4F)cn3)n2)noc1=O [Example 19, 2,6-Difluoro-N-(6-(3-(4-methyl-5-oxo-4,5-dihydro-1,2,4-oxadiazol-3-yl)-5-(trifluoromethyl)-1H-pyrazol-1-yl)pyridin-3-yl)benzamide] | 100 to 1000 nM
23 | COC(=O)C1(C)CC(c2cc(C(F)(F)F)n(-c3ccc(NCc4c(F)cccc4F)cn3)n2)=NO1 (centres unmarked) [Example 6, Methyl 3-(1-(5-((2,6-difluorobenzyl)amino)pyridin-2-yl)-5-(trifluoromethyl)-1H-pyrazol-3-yl)-5-methyl-4,5-dihydroisoxazole-5-carboxylate] | 100 to 1000 nM
24 | Cn1nc(-c2cc(C(F)(F)F)n(-c3ccc(NC(=O)c4ccccc4F)nc3)n2)oc1=O [Example 41, 2-Fluoro-N-(5-(3-(4-methyl-5-oxo-4,5-dihydro-1,3,4-oxadiazol-2-yl)-5-(trifluoromethyl)-1H-pyrazol-1-yl)pyridin-2-yl)benzamide] | < 100 nM
25 | Cc1cccc(F)c1C(=O)Nc1ccc(-n2nc(C(F)(F)F)cc2-c2nn(C)c(=O)o2)nc1 [Example 2, 2-Fluoro-6-methyl-N-(6-(5-(4-methyl-5-oxo-4,5-dihydro-1,3,4-oxadiazol-2-yl)-3-(trifluoromethyl)-1H-pyrazol-1-yl)pyridin-3-yl)benzamide] | 100 to 1000 nM
26 | CC(=O)N1N=C(c2cc(C(F)(F)F)n(-c3ccc(NCc4c(F)cccc4F)cn3)n2)OC1(C)C [Example 27, 1-(5-(1-(5-((2,6-Difluorobenzyl)amino)pyridin-2-yl)-5-(trifluoromethyl)-1H-pyrazol-3-yl)-2,2-dimethyl-1,3,4-oxadiazol-3(2H)-yl)ethanone] | 100 to 1000 nM
